Laboratory results from patent US20120101077A1, “AGGLOMERATE FORMULATIONS USEFUL IN DRY POWDER INHALERS” (Schering Corporation, priority 2009, published 2012).
Where two headings read alike, the source gives them in different places.

Columns and labels:
[1] = cited from earlier work
[2] = cited from earlier work; remark: listed apart in the source
[3] = Particle size of micronized materials by HELOS laser diffraction; assay type: physicochemical; conditions: jet-milled micronized material
Protocol: Micronization of the drug and lactose were performed in-house using a jet-mill (Micron Master, The Jet Pulverizer Co., Inc, Moorestown, N.J.). […] Particle size measurements of the micronized materials were performed using a HELOS® (Sympatec Inc., Clausthal-Zellerfeld, Germany) laser diffraction system.

[4] = Specific surface area of additional functional excipients; assay type: physicochemical

For `C[C@@H]1C[C@H]2[C@@H]3CCC4=CC(=O)C=C[C@]4(C)[C@@]3(Cl)[C@@H](O)C[C@]2(C)[C@@]1(OC(=O)c1ccco1)C(=O)CCl` [Mometasone furoate, 9,21-Dichloro-11(beta), 17-dihydroxy-16(alpha)-methylpregna-1,4-diene-3,20-dione 17-(2 furoate)], the solubility ([1]; in acetone) is listed as “soluble”, the solubility ([1]; in chloroform) is listed as “soluble” and the solubility ([1]; in ethanol) is listed as “slightly soluble”. For the same compound, the solubility ([1]; in isopropanol) was “slightly soluble”, the solubility ([1]; in methanol) was “slightly soluble” and the solubility ([1]; in tetrahydrofuran) was “freely soluble”. The solubility ([1]; in water) was “practically insoluble”, the “partition coefficient between octanol and water” value [2] was “greater than 5000” and the “average particle size (DV50)” value [3] was 1.1 μm.

In the case of `OC[C@H]1O[C@@H](O[C@H]2[C@H](O)[C@@H](O)[C@@H](O)O[C@@H]2CO)[C@H](O)[C@@H](O)[C@H]1O` [micronized lactose, lactose anhydrous, NF], the “average particle size (DV50)” value [3] is reported as 2.0 μm.

magnesium stearate gave a specific surface area [4] of 8 m^2/g.
